Where two headings read alike, the source gives them in different places.
Tests used:
human mTOR enzyme = human mTOR enzyme (Homo sapiens, UniProt P42345); experiment: mTOR kinase assay (HTRF mTOR enzyme assay); assay type: biochemical; details: 5 μM ATP, 0.2 μM GST-S6K, one hour at 30° C.
Procedure: An HTRF mTOR enzyme assay was developed to assess the compounds' inhibitory activity. The mTOR assay buffer contained 10 mM Hepes (pH 7.4), 50 mM NaCl, 100 μg/ml BSA, 50 mM B-glycerophosphate, 10 mM MnCl2 and 0.5 mM DTT. […] 20 ng of human mTOR enzyme (<5% pure was preincubated with the compound for 10 minutes followed by the addition of 5 μM ATP and 0.2 μM GST-S6K (Zhang et al., Protein Expression and Purification 46, pp 414-420 (2006)). The reaction was incubated for one hour at 30° C. Anti phospho p70-S6K(Thr389) (˜1.7 ng/well, anti-phospho-p70S6K-cryptate (Pho-p70S6-Kin-K cat#64CUSKAY, from Cisbio)) and anti GST-XL665 (1:1 Ratio with the substrate GST-S6K, anti GST-XL665, cat#61 GSTXLB) Cisbio) were added after the reaction was stopped. The plates were read (PHERAstar, BMG) at least 2 hours after adding the anti phospho p70-S6K and the anti GST-XL665.
Dose-response curves were plotted from the inhibition data generated, each in duplicate, from 8 point serial dilutions of inhibitory compounds. Concentration of compound was plotted against the HTRF em665/em590 ratio signal. To generate IC50 values, the dose-response curves were fitted to a standard sigmoidal curve and IC50 values were derived by nonlinear regression analysis.

[1] = system: phosphorylated AKT Ser473 (pAKT S473), mTORC2 activity, PC3 cells; experiment: mTOR target engagement assay, immunofluorescent cell-based, pAKT S473 readout (mTORC2 activity); details: Homo sapiens
Method in brief: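 After blocking, cells were stained overnight at 4 °C with anti-pAKT S473 antibody, then a fluorescent secondary; inhibition was read as reduced fluorescence intensity.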

[2] = system: phosphorylated 4E-BP1 Thr37/46 (p4E-BP1 Thr37/46), mTORC1 activity, PC3 cells; experiment: mTOR target engagement assay, immunofluorescent cell-based, p4E-BP1 Thr37/46 readout (mTORC1 activity); details: Homo sapiens
Method in brief: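 Cell-based immunofluorescence in PC3 cells: serially diluted compounds (0.25% DMSO, 5% FBS) applied for ninety minutes at 37° C before fixation and overnight 4° C staining of p4E-BP1 Thr37/46. Untreated DMSO wells set maximal phosphorylation; IC50 obtained by logistic fitting.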

[3] = PC-3, Table 3-1, PC3 cells, read-out: p4E-BP1 Thr37/46 IC50
[4] = PC-3, PC3 cells, compound treatment ninety minutes at 37° C.
[5] = PC-3, PC3 cells, compound treatment ninety minutes at 37° C., read-out: p4E-BP1 Thr37/46 IC50
[6] = PC-3, Table 6-1, PC3 cells, read-out: p4E-BP1 Thr37/46 IC50

Chain of human mTOR enzyme (P42345 1360-2549 limits assumed): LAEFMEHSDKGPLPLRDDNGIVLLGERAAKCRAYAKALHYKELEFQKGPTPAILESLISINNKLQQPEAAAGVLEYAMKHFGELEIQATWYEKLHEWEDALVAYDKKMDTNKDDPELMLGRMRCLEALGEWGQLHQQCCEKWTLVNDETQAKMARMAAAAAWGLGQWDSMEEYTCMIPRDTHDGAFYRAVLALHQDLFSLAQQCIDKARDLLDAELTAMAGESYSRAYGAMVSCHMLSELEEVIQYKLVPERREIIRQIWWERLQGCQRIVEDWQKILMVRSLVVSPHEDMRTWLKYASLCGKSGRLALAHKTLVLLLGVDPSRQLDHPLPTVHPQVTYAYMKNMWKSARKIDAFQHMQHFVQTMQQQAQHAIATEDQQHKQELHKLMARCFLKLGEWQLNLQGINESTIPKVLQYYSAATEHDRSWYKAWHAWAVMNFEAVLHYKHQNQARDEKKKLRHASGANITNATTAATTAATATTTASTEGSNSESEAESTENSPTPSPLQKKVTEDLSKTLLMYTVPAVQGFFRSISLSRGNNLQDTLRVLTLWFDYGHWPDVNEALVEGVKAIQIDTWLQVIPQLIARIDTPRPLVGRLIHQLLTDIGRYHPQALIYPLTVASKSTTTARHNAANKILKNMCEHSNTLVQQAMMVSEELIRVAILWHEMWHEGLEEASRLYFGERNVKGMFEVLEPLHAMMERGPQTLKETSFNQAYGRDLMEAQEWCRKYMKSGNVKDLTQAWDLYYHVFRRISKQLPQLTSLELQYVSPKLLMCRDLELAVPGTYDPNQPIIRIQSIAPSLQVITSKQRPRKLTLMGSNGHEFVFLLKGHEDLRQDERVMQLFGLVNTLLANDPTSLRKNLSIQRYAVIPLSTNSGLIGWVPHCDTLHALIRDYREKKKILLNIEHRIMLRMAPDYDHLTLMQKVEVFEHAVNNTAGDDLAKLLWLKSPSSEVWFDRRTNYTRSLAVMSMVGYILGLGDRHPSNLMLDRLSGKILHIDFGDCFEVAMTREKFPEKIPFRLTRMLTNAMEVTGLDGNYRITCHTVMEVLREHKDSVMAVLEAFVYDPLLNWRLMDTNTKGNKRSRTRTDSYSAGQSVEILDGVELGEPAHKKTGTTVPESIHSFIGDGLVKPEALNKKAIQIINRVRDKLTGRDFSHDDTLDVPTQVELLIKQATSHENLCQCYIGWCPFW

## CC(=O)c1c(N2C3CCC2CN(C(=O)[C@@H](C)O)C3)nc2c(-c3ccc(-c4ccccc4)nc3)cnn2c1N [Compound 50]
Human mTOR enzyme
  IC50: 10 to 25 nM

## CC(=O)c1c(N2CC3CCC2CN3C(=O)c2nnc[nH]2)nc2c(-c3ccc(-c4ccccc4)nc3)cnn2c1N (stereo not shown) [Compound 48]
Human mTOR enzyme
  IC50: 1 to 10 nM

## CC(=O)c1c(N2CC3CCC2CN3C(=O)[C@@H](C)O)nc2c(-c3ccc(-c4ccccc4)nc3)cnn2c1N (stereo partly shown) [Compound 47]
Human mTOR enzyme
  IC50: 10 to 25 nM

## CC(=O)c1c(N2C3CCC2CN(C(=O)CO)C3)nc2c(-c3ccc(-c4ccccc4)nc3)cnn2c1N [Compound 49]
Human mTOR enzyme
  IC50: 1 to 10 nM

## Nc1cc([C@@H]2C[C@H]3CC[C@@H](C2)N3)nc2c(-c3cc[nH]c(=O)c3)cnn12 [Example 8B, 4-{7-Amino-5-[(3-exo)-8-azabicyclo[3.2.1]oct-3-yl]pyrazolo[1,5-a]pyrimidin-3-yl}pyridin-2(1H)-one]
Human mTOR enzyme
  IC50: 489 nM

## Nc1c(F)c([C@@H]2C[C@H]3CC[C@@H](C2)N3C(=O)CO)nc2c(-c3ccc(-c4ncc[nH]4)nc3)cnn12 [Example 8A, 1-[(3-Exo)-3-{7-amino-6-fluoro-3-[6-(1H-imidazol-2-yl)pyridin-3-yl]pyrazolo[1,5-a]pyrimidin-5-yl}-8-azabicyclo[3.2.1]oct-8-yl]-2-hydroxyethanone]
Human mTOR enzyme
  IC50: 2 nM

## CC(=O)c1c([C@@H]2C[C@H]3CC[C@@H](C2)N3C(=O)c2nnc[nH]2)nc2c(-c3ccc(-c4nn(C)cc4F)nc3)cnn2c1N [Compound 1.1.93, 1-(5-((1R,3s,5S)-8-(4H-1,2,4-triazole-3-carbonyl)-8-azabicyclo[3.2.1]octan-3-yl)-7-amino-3-(6-(4-fluoro-1-methyl-1H-pyrazol-3-yl)pyridin-3-yl)pyrazolo[1,5-a]pyrimidin-6-yl)ethanone]
[1]; PC-3, PC3 cells, given as a number, no unit
  IC50: 4070 nM
Human mTOR enzyme
  IC50: 2.3 nM
[2]; PC-3, PC3 cells, given as a number, no unit, read-out: p4E-1 Thr37/46 IC50
  IC50: 3880 nM

## CS(=O)(=O)c1c([C@@H]2C[C@H]3CC[C@@H](C2)N3C(=O)c2nnc[nH]2)nc2c(-c3cnn(-c4ccccn4)c3)cnn2c1N [Compound 3.123, ((1R,3s,5S)-3-(7-amino-6-(methylsulfonyl)-3-(1-(pyridin-2-yl)-1H-pyrazol-4-yl)pyrazolo[1,5-a]pyrimidin-5-yl)-8-azabicyclo[3.2.1]octan-8-yl)(4H-1,2,4-triazol-3-yl)methanone]
[1]; PC-3, Table 3-1, PC3 cells
  IC50: 100 to 1000 nM
[2]; [3]
  IC50: 100 to 1000 nM

## CC(=O)c1c([C@@H]2C[C@H]3CC[C@@H](C2)N3C(=O)c2nnc(C)[nH]2)nc2c(-c3ccc(-c4ccccc4F)nc3)cnn2c1N [Compound 1.1.173, 1-(7-amino-3-(6-(2-fluorophenyl)pyridin-3-yl)-5-((1R,3s,5S)-8-(5-methyl-4H-1,2,4-triazole-3-carbonyl)-8-azabicyclo[3.2.1]octan-3-yl)pyrazolo[1,5-a]pyrimidin-6-yl)ethanone]
[1]; [4]
  IC50: 1 to 100 nM
[2]; [5]
  IC50: 1 to 100 nM

## CC(=O)c1c([C@@H]2C[C@H]3CC[C@@H](C2)N3C(=O)c2cc(N)n[nH]2)nc2c(-c3ccc(C(O)(C(F)(F)F)C(F)(F)F)nc3)cnn2c1N [Compound 7.79, 1-(7-amino-5-((1R,3s,5S)-8-(3-amino-1H-pyrazole-5-carbonyl)-8-azabicyclo[3.2.1]octan-3-yl)-3-(6-(1,1,1,3,3,3-hexafluoro-2-hydroxypropan-2-yl)pyridin-3-yl)pyrazolo[1,5-a]pyrimidin-6-yl)ethanone]
[1]; PC-3, PC3 cells
  IC50: 100 to 1000 nM
[2]; PC-3, PC3 cells, read-out: p4E-BP1 Thr37/46 IC50
  IC50: 100 to 1000 nM

## Cc1nnc(C(=O)N2[C@@H]3CC[C@H]2C[C@H](c2nc4c(-c5cn[nH]c5)cnn4c(N)c2S(C)(=O)=O)C3)[nH]1 [Compound 3.115, ((1R,3s,5S)-3-(7-amino-6-(methylsulfonyl)-3-(1H-pyrazol-4-yl)pyrazolo[1,5-a]pyrimidin-5-yl)-8-azabicyclo[3.2.1]octan-8-yl)(5-methyl-4H-1,2,4-triazol-3-yl)methanone]
[1]; PC-3, Table 3-1, PC3 cells
  IC50: > 10000 nM
[2]; [3]
  IC50: > 10000 nM

## CC(=O)c1c([C@@H]2C[C@H]3CC[C@@H](C2)N3C(=O)c2cc[nH]n2)nc2c(-c3ccc(C(C)(C)O)nc3)cnn2c1N [Compound 7.11, 1-(5-((1R,3s,5S)-8-(1H-pyrazole-3-carbonyl)-8-azabicyclo[3.2.1]octan-3-yl)-7-amino-3-(6-(2-hydroxypropan-2-yl)pyridin-3-yl)pyrazolo[1,5-a]pyrimidin-6-yl)ethanone]
[1]; [4]
  IC50: 1 to 100 nM
[2]; [5]
  IC50: 100 to 1000 nM

## CC(=O)c1c([C@@H]2C[C@H]3CC[C@@H](C2)N3C(=O)c2cc(N)n[nH]2)nc2c(-c3ccc(-c4ccc(F)cc4)nc3)cnn2c1N [Compound 1.1.156, 1-(7-amino-5-((1R,3s,5S)-8-(3-amino-1H-pyrazole-5-carbonyl)-8-azabicyclo[3.2.1]octan-3-yl)-3-(6-(4-fluorophenyl)pyridin-3-yl)pyrazolo[1,5-a]pyrimidin-6-yl)ethanone]
[1]; [4]
  IC50: 1 to 100 nM
[2]; [5]
  IC50: 1 to 100 nM

## CS(=O)(=O)c1c([C@@H]2C[C@H]3CC[C@@H](C2)N3C(=O)c2nnc[nH]2)nc2c(-c3cnc(-c4ccccc4)nc3)cnn2c1N [Compound 3.136, ((1R,3s,5S)-3-(7-amino-6-(methylsulfonyl)-3-(2-phenylpyrimidin-5-yl)pyrazolo[1,5-a]pyrimidin-5-yl)-8-azabicyclo[3.2.1]octan-8-yl)(4H-1,2,4-triazol-3-yl)methanone]
[1]; PC-3, Table 3-1, PC3 cells
  IC50: 1 to 100 nM
[2]; [3]
  IC50: 1 to 100 nM

## CC(=O)c1c([C@@H]2C[C@H]3CC[C@@H](C2)N3C(=O)CO)nc2c(-c3ccc(-c4ncc[nH]4)c(F)c3)cnn2c1N [Compound 6.40, 1-((1R,3s,5S)-3-(6-acetyl-7-amino-3-(3-fluoro-4-(1H-imidazol-2-yl)phenyl)pyrazolo[1,5-a]pyrimidin-5-yl)-8-azabicyclo[3.2.1]octan-8-yl)-2-hydroxyethanone]
[1]; PC-3, Table 6-1, PC3 cells
  IC50: 1 to 100 nM
[2]; [6]
  IC50: 1 to 100 nM

## Nc1c(C2CC2)c([C@@H]2C[C@H]3CC[C@@H](C2)N3C(=O)CO)nc2c(-c3ccc(-c4cccc(F)c4)nc3)cnn12 [Compound 4.22, 1-((1R,3s,5S)-3-(7-amino-6-cyclopropyl-3-(6-(3-fluorophenyl)pyridin-3-yl)pyrazolo[1,5-a]pyrimidin-5-yl)-8-azabicyclo[3.2.1]octan-8-yl)-2-hydroxyethanone]
[1]; [4]
  IC50: 100 to 1000 nM
[2]; [5]
  IC50: 100 to 1000 nM

## Nc1c(C2CC2)c([C@@H]2C[C@H]3CC[C@@H](C2)N3C(=O)CO)nc2c(-c3ccc(-c4ncc[nH]4)nc3)cnn12 [Compound 6.1, 1-((1R,3s,5S)-3-(3-(6-(1H-imidazol-2-yl)pyridin-3-yl)-7-amino-6-cyclopropylpyrazolo [1,5-a]pyrimidin-5-yl)-8-azabicyclo[3.2.1]octan-8-yl)-2-hydroxyethanone]
[1]; PC-3, Table 6-1, PC3 cells
  IC50: 1 to 100 nM
[2]; [6]
  IC50: 1 to 100 nM

## COc1ccc(-c2ccc(-c3cnn4c(N)c(S(C)(=O)=O)c([C@H]5CC6CC[C@H](C5)N6C(=O)c5cn[nH]n5)nc34)cn2)cc1F [Compound 3.169, ((1R,3a,5S)-3-(7-amino-3-(6-(3-fluoro-4-methoxyphenyl)pyridin-3-yl)-6-(methylsulfonyl)pyrazolo[1,5-a]pyrimidin-5-yl)-8-azabicyclo[3.2.1]octan-8-yl)(2H-1,2,3-triazol-4-yl)methanone]
[1]; PC-3, Table 3-1, PC3 cells
  IC50: 1 to 100 nM
[2]; [3]
  IC50: 100 to 1000 nM
